Test results as given in patent publication US20100093706A1, “MULTIMEDIATOR TRANSPORTER INHIBITORS FOR USE IN TREATMENT OF CENTRAL NERVOUS SYSTEM DISORDERS” (priority 2006, published 2010).

Assays:
[1] = molecular target: T1, DAT (SLC6A3) (Homo sapiens, UniProt Q01959); assay: in vitro inhibition profile, IC50 of DAT (uptake assay); format: cell-based
T1 construct: expressed in transfected cells
Description: Before the assay, cells expressing DAT are washed once with KRH and equilibrated for 5 min. The cells may be assayed in 24-well plates and incubated for 2-5 min. with tritiated amines. Nontransported inhibitors were preincubated for 5 min, and substrates were applied together with the tritiated substrate.
Experiments to determine the ionic requirements for DAT-mediated uptake are done in KRH buffer, substituting LiCl or choline Cl for NaCl (sodium-dependence) or substituting D-gluconates for NaCl and KCl, and Ca(NO3)2 for CaCl2 (chloride dependence). Cells are washed twice with sodium- or chloride-free KRH before the assay (each wash step at least 5 min). In all transport assays, incubation periods and substrate concentrations are chosen such that uptake obeyed first-order rate kinetics.
Vmax values for amine uptake in stable transfected DAT-cells are determined in parallel assays for at least two amines per experiment and expressed as relative values.

[2] = tested on: rats; assay: forced swim test (behavioral despair assay) in rats; format: in vivo; conditions: rat
Description: In vivo efficacy of several illustrative inhibitors of the instant invention, (1), (3), and (4), were measured using standard forced swim test model using rat. The objective of this study was to assess the antidepressant effects of test compounds in the behavioral despair assay in rats using a modification of a method described by Porsolt R. D. et al. in Behavioural despair in rats: a new model sensitive to antidepressant treatment, Eur. J. Pharmacol., 47: 379-391, 1978; Porsolt et al., Nature 266: 730-732, 1977; and Porsolt et al., in Psychopharmacology, Olivier, Mos, and Slangen (eds) Birkhäuser Verlag, Basel, pp. 137-159, 1991. Briefly, when mice (or rats) are forced to swim in a cylinder from which no escape is possible, they readily adopt a characteristic immobile posture and make no further attempts to escape except for small movements needed to keep floating. The immobility is considered by some to reflect a “depressive mood” (Porsolt et al., Nature 266: 730-732, 1977) in which animals cease to struggle to escape the aversive situation. The immobility induced by the procedure is influenced by a wide variety of antidepressants (Porsolt et al., in Psychopharmacology, Olivier, Mos, and Slangen (eds) Birkhauser Verlag, Basel, pp. 137-159, 1991) and has a good predictive validity in that it detects antidepressants with different mechanisms of action (TCAs, SSRIs, MAOIs, and other atypical ones). The test is sensitive to muscle-relaxant (benzodiazepines) and sedative (neuroleptics) effects, leading to enhanced immobility (Porsolt et al., supra).
In a typical experiment, animals are placed singly into a cylinder (e.g. 46×30 cm) containing fresh water at about 20° C. for 6 minutes. The activity (or immobility) of the animal is measured by an observer minute by minute. In more detail, the animals were preconditioned in a pretest session, where the rats were individually forced to swim inside a vertical plexiglass cylinder containing water maintained at 19-20° C. After 15 minutes in the water, they were allowed to dry for […] in a heated enclosure. Twenty-four hours later, the compounds were administered either intraperitoneally or orally to the animals. One hour after administration of the test compound, animals were put back into the cylinder containing water. The total duration of immobility was measured during the last 4 minutes of a 6 minute test.
The results are expressed as the percentage of variation of the total duration of immobility calculated from the mean value of the vehicle-treated group (% variation=[(immobility duration of vehicle−immobility duration of test compound)/(immobility duration of vehicle)]×100%).
In order to measure the in vivo efficacy of inhibiting DAT in rats using an inhibitor of the instant invention, one test inhibitor ((1), (3), or (4)) was injected i.p. as racemic mixtures of diastereomers into the animals, at various-doses (e.g. 7.5 and […]). Sibutramine (2.0 and 2.5 mg/kg), Bupropion (7.5 and 10 mg/kg), and Imipramine (30 mg/kg) were similarly administered as controls. […] Asterisks indicate highly statistical significant results.
A fourth inhibitor, (6) was administered p.o. as a racemic mixture of diastereomers at either 35 or 75 mg/kg. Sibutramine (5.0 and 3.75 mg/kg), Bupropion (30 and 40 mg/kg), and Imipramine (100 mg/kg) were similarly administered as controls.
Similarly, (1) was also administered p.o. as a racemic mixture of enriched (95:5) diastereomer at either 35 or 75 mg/kg. […]

T1 sequence (Q01959 whole entry): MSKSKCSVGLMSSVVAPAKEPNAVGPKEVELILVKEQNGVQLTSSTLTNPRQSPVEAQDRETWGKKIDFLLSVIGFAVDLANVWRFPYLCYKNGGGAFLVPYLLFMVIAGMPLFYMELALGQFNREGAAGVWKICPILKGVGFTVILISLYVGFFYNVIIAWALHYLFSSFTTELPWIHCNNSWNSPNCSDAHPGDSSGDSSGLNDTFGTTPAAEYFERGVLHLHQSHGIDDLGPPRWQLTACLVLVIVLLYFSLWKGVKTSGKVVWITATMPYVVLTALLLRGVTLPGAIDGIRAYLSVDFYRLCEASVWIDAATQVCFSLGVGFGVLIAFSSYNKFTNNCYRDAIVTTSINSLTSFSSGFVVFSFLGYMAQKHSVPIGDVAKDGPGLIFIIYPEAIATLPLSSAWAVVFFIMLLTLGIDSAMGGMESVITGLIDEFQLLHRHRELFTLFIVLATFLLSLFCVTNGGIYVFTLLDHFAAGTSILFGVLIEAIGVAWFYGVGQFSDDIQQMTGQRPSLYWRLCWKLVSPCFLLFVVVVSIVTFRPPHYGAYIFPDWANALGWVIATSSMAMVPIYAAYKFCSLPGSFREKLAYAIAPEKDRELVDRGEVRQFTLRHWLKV

`CC1CCN(CC2(c3ccc(Cl)cc3)CCC2)CC1COc1ccc(C(F)(F)F)cc1` (stereo not drawn) [(1)] was tested, and the IC50 [1] was 1 nM, the “forced swim test efficacy versus commercial drugs (FIG. 1)” value ([2]; i.p., racemic mixtures of diastereomers) was “performed equally well, if not better, than the commercial drugs Sibutramine, Bupropion, and Imipramine” and the “forced swim test efficacy versus commercial drugs (FIG. 2, FIG. 3)” value ([2]; p.o., 35 or 75 mg/kg) was “performed equally well, if not better, than the commercial drugs Sibutramine, Bupropion, and Imipramine”.
